tested on: Staphylococcus aureus; experiment: Control: microbicidal activity of the amino acid or analogue alone (no glucose, MPO, glucose oxidase) in the presence of blood; assay type: cell-based; conditions: Staphylococcus aureus, 1 h, read-out: Log Reduction 60 min
Description: As a control to determine the microbicidal activity of the amino acids alone, the foregoing procedure was followed without replication, except in the absence of glucose, MPO, and glucose oxidase.

Row | SMILES | log reduction at 5000 µM
1 | O=C(O)C1CCCNC1 (centres unmarked) [Nipecotic acid] | 0

same assay, conditions: Staphylococcus aureus, 1 h; amino acid alone 5 mM; MPO 0; GO 0; no glucose; blood; without replication; read-out: Log Reduction 60 min

Row | SMILES | log reduction at 5000 µM
2 | CC[C@@H](C)[C@@H](N)C(=O)O [D-Isoleucine] | 0.1
3 | O=CC(=O)O [Glyoxylic acid] | 0.1
4 | O=C(O)[C@H]1CCCN1 [D-Proline] | 0.1
5 | CC(C)C[C@H](N)C(=O)O [L-Leucine] | 0.1
6 | N[C@H](CO)C(=O)O [D-Serine] | 0

same assay, conditions: amino acid alone 5 mM; MPO 0; GO 0; no glucose; blood; without replication

Row | SMILES | Average Viability CFU/ml 60 min [CFU/ml]
7 | CC[C@@H](C)[C@@H](N)C(=O)O [D-Isoleucine] | 21300000
8 | O=CC(=O)O [Glyoxylic acid] | 22200000
9 | O=C(O)[C@H]1CCCN1 [D-Proline] | 21400000
10 | CC(C)C[C@H](N)C(=O)O [L-Leucine] | 18700000
11 | N[C@H](CO)C(=O)O [D-Serine] | 23100000

tested on: Staphylococcus aureus; experiment: Microbicidal activity of the myeloperoxidase system (p-MPO, glucose oxidase, glucose) with amino acids in the presence of blood, CFU plate counts; synergy determination from these CFU; assay type: cell-based; conditions: MPO 25 μg/mL; AA 5 mM; 30 min
How it was run: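 Staphylococcus aureus grown 24 hours in TSB at 35° C was washed in saline and added at a final 2-3×10^7 CFU per mL. The bacteria were mixed in 1 mL reactions with porcine myeloperoxidase, glucose oxidase, amino acids, 150 mM sodium chloride and 3% venous whole blood. Adding glucose to 150 mM started killing. After catalase addition, survivors were counted by serial dilution plating on TSA at 37° C for 24 hours.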

Row | SMILES | Log 10 (CFU + 1) Survivors
12 | CC[C@@H](C)[C@@H](N)C(=O)O [D-Isoleucine] | 0.0
13 | O=C(O)[C@H]1CCCN1 [D-Proline] | 6.9
14 | CC(C)C[C@H](N)C(=O)O [L-Leucine] | 4.1
15 | N[C@H](CO)C(=O)O [D-Serine] | 6.8

same assay, conditions: MPO 25 μg/mL; AA 5 mM; 60 min

Row | SMILES | Log 10 (CFU + 1) Survivors
16 | CC[C@@H](C)[C@@H](N)C(=O)O [D-Isoleucine] | 0.0
17 | O=C(O)[C@H]1CCCN1 [D-Proline] | 2.4
18 | CC(C)C[C@H](N)C(=O)O [L-Leucine] | 0.0
19 | N[C@H](CO)C(=O)O [D-Serine] | 6.5

same assay, conditions: MPO 25 μg/mL; AA […]; 30 min

Row | SMILES | Log 10 (CFU + 1) Survivors
20 | CC[C@@H](C)[C@@H](N)C(=O)O [D-Isoleucine] | 6.0
21 | O=C(O)[C@H]1CCCN1 [D-Proline] | 7.3
22 | CC(C)C[C@H](N)C(=O)O [L-Leucine] | 3.9
23 | N[C@H](CO)C(=O)O [D-Serine] | 6.7

same assay, conditions: MPO 25 μg/mL; AA […]; 60 min

Row | SMILES | Log 10 (CFU + 1) Survivors
24 | CC[C@@H](C)[C@@H](N)C(=O)O [D-Isoleucine] | 1.1
25 | O=C(O)[C@H]1CCCN1 [D-Proline] | 3.7
26 | CC(C)C[C@H](N)C(=O)O [L-Leucine] | 0.0
27 | N[C@H](CO)C(=O)O [D-Serine] | 6.0

same assay, conditions: MPO 100 μg/mL; AA 5 mM; 30 min

Row | SMILES | Log 10 (CFU + 1) Survivors
28 | CC[C@@H](C)[C@@H](N)C(=O)O [D-Isoleucine] | 0.0
29 | O=C(O)[C@H]1CCCN1 [D-Proline] | 5.7
30 | CC(C)C[C@H](N)C(=O)O [L-Leucine] | 0.0
31 | N[C@H](CO)C(=O)O [D-Serine] | 6.0

same assay, conditions: MPO 100 μg/mL; AA 5 mM; 60 min

Row | SMILES | Log 10 (CFU + 1) Survivors
32 | CC[C@@H](C)[C@@H](N)C(=O)O [D-Isoleucine] | 0.0
33 | O=C(O)[C@H]1CCCN1 [D-Proline] | 2.7
34 | CC(C)C[C@H](N)C(=O)O [L-Leucine] | 0.0
35 | N[C@H](CO)C(=O)O [D-Serine] | 0.0

same assay, conditions: MPO 100 μg/mL; AA 20 mM; 30 min

Row | SMILES | Log 10 (CFU + 1) Survivors
36 | CC[C@@H](C)[C@@H](N)C(=O)O [D-Isoleucine] | 0.0
37 | O=C(O)[C@H]1CCCN1 [D-Proline] | 4.8
38 | CC(C)C[C@H](N)C(=O)O [L-Leucine] | 0.0
39 | N[C@H](CO)C(=O)O [D-Serine] | 6.0

same assay, conditions: MPO 100 μg/mL; AA 20 mM; 60 min

Row | SMILES | Log 10 (CFU + 1) Survivors
40 | CC[C@@H](C)[C@@H](N)C(=O)O [D-Isoleucine] | 0.0
41 | O=C(O)[C@H]1CCCN1 [D-Proline] | 0.0
42 | CC(C)C[C@H](N)C(=O)O [L-Leucine] | 0.0
43 | N[C@H](CO)C(=O)O [D-Serine] | 3.9

same assay, conditions: Table 3; amino acid 5 mM (none: 0 mM); MPO 38 U/ml; GO 33.3 U/ml; blood

Row | SMILES | Average Viability CFU/ml 60 min [CFU/ml] | Log 10 (CFU + 1) Survivors 60 min | Log Reduction 60 min
44 | CC(C)C[C@H](N)C(=O)O [L-Leucine] | 0 | 0.0 | 7.3

same assay, conditions: Table 4; amino acid 5 mM (none: 0 mM); MPO 38 U/ml; GO 33.3 U/ml; blood

Row | SMILES | Average Viability CFU/ml 60 min [CFU/ml] | Log Reduction 60 min
45 | O=CC(=O)O [Glyoxylic acid] | 610000 | 1.6
46 | O=C(O)[C@H]1CCCN1 [D-Proline] | 830 | 4.5

same assay, conditions: Table 5; amino acid 5 mM (none: 0 mM); MPO 38 U/ml; GO 33.3 U/ml; blood

Row | SMILES | Average Viability CFU/ml 60 min [CFU/ml] | Log Reduction 60 min
47 | CC[C@@H](C)[C@@H](N)C(=O)O [D-Isoleucine] | 0 | 7.4
48 | N[C@H](CO)C(=O)O [D-Serine] | 0 | 7.4

same assay, conditions: Table 7; amino acid analogue 5 mM; MPO 38 U/ml; GO 33.3 U/ml; blood

Row | SMILES | Log Reduction 60 min
49 | O=C(O)C1CCCNC1 (centres unmarked) [Nipecotic acid] | 7.4

same assay, conditions: Table 10; single amino acid 2.5 mM; MPO 4.7 U/ml, GO 4.2 U/ml; in the presence of blood; 50 min

Row | SMILES | Average Viability CFU/ml 50 min [CFU/ml] | Log Reduction 50 min
50 | CC(C)C[C@H](N)C(=O)O [L-Leucine] | 214500 | 2.1

same assay, conditions: Table 11; single amino acid 2.5 mM; MPO 4.7 U/ml, GO 4.2 U/ml; in the presence of blood; 50 min

Row | SMILES | Average Viability CFU/ml 50 min [CFU/ml] | Log Reduction 50 min
51 | CC[C@@H](C)[C@@H](N)C(=O)O [D-Isoleucine] | 196000 | 2.1
52 | O=C(O)[C@H]1CCCN1 [D-Proline] | 1890000 | 1.2
53 | CC(C)C[C@H](N)C(=O)O [L-Leucine] | 200500 | 2.1
54 | N[C@H](CO)C(=O)O [D-Serine] | 945000 | 1.5

same assay, conditions: Table 19; amino acid 3.5 mM; MPO 4.7 U/ml, GO 4.2 U/ml; 50 min

Row | SMILES | Average Viability CFU/ml 50 min [CFU/ml] | Log Reduction 50 min
55 | CC(C)C[C@H](N)C(=O)O [L-Leucine] | 204000 | 2.1

same assay, conditions: Table 19; amino acid (racemic, L- or D-form) 2.5 mM; MPO 4.7 U/ml, GO 4.2 U/ml; 50 min

Row | SMILES | Average Viability CFU/ml 50 min [CFU/ml] | Log Reduction 50 min
56 | CC[C@@H](C)[C@@H](N)C(=O)O [D-Isoleucine] | 196000 | 2.1

same assay, conditions: single amino acid 2.5 mM; MPO 4.7 U/ml; GO 4.2 U/ml; blood

Row | SMILES | Average Viability CFU/ml 50 min [CFU/ml] | Log Reduction 50 min
57 | CC[C@@H](C)[C@@H](N)C(=O)O [D-Isoleucine] | 196000 | 2.1
58 | CC(C)C[C@H](N)C(=O)O [L-Leucine] | 200500 | 2.1

same assay, conditions: standard conditions of Example 5 (2.5 μmol/mL; MPO 4.7 U/mL; GO 4.2 U/mL)

Row | SMILES | CFU survivors, amino acid acting separately [CFU]
59 | CC[C@@H](C)[C@@H](N)C(=O)O [D-Isoleucine] | 196000

Reference: patent US8945540B2, “Compositions for enhancing the antibacterial activity of myeloperoxidase and methods of use thereof” (Exoxemis, Inc., priority 2008, dated 2015)
